Each molecule was assayed against P70S6K (T412E mutant) (Homo sapiens (Human), UniProt P23443, T412E) (assay: P70S6K enzyme assay). Conditions: read-out: IC50 p70S6K.
Sequence of P70S6K (T412E mutant) (P23443 whole entry T412E): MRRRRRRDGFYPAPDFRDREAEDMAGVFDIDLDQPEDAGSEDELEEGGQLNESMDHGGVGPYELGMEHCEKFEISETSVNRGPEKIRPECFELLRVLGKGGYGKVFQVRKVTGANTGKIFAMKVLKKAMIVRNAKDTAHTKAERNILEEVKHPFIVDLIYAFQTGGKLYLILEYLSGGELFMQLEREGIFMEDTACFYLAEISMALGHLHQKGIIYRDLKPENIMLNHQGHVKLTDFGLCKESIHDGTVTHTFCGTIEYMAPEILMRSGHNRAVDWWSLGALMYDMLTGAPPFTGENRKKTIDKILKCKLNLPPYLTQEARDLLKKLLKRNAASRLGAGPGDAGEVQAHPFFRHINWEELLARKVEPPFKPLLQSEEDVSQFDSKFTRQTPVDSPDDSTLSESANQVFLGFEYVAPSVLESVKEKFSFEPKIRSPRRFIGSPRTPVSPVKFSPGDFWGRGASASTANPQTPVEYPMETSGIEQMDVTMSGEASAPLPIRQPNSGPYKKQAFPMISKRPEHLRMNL
Assay type: biochemical
Experimental: P70S6K inhibitor compounds are diluted and plated in 96 well plates. […] The reaction is incubated for 90 min at 25° C., before the addition of 10 mM EDTA to stop the reaction. The proportion of substrate and product (phosphorylated) peptide is analysed on a Caliper Life Sciences Lab Chip 3000, using a pressure of −1.4 psi, and upstream and downstream voltages of −3000 and −700 respectively. Product peaks are resolved before substrate peaks on the resulting chromatograms.
For `Cn1cc(-c2ccc(F)c(C(F)(F)F)c2)nc1C1CCN(c2ncnc(N)c2-c2ccc(N3CCNCC3)nc2)CC1` [Compound 26, 6-{4-[4-(4-Fluoro-3-trifluoromethyl-phenyl)-1-methyl-1H-imidazol-2-yl]-piperidin-1-yl}-5-(6-piperazin-1-yl-pyridin-3-yl)-pyrimidin-4-ylamine], the IC50 was 1000 nM.
`COc1cccc(-c2c(N)ncnc2N2CCC(c3nc(-c4ccc(F)c(C(F)(F)F)c4)cn3C)CC2)c1` [Compound 29, 6-{4-[4-(4-Fluoro-3-trifluoromethyl-phenyl)-1-methyl-1H-imidazol-2-yl]-piperidin-1-yl}-5-(3-methoxyphenyl)-pyrimidin-4-ylamine] showed an IC50 of 9.8 nM.
With `Cn1cc(-c2ccc(F)c(C(F)(F)F)c2)nc1C1CCN(c2ncnc(N)c2-c2cnc(N)nc2)CC1` [Compound 28, 6′-{4-[4-(4-Fluoro-3-trifluoromethyl-phenyl)-1-methyl-1H-imidazol-2-yl]-piperidin-1-yl}-[5,5]bipyrimidinyl-2,4′-diamine] the IC50 was 4.4 nM.
For `Cn1cc(-c2ccc(F)c(C(F)(F)F)c2)nc1C1CCN(c2ncnc(N)c2-c2cccc(Cl)c2)CC1` [Compound 51, 5-(3-Chloro-phenyl)-6-{4-[4-(4-fluoro-3-trifluoromethyl-phenyl)-1-methyl-1H-imidazol-2-yl]-piperidin-1-yl}-pyrimidin-4-ylamine], the IC50 was 22 nM.
For `Cn1cc(-c2ccc(F)c(C(F)(F)F)c2)nc1C1CCN(c2ncnc(N)c2-c2ccc(CN)cc2)CC1` [Compound 32, 5-(4-Aminomethyl-phenyl)-6-{4-[4-(4-fluoro-3-trifluoromethyl-phenyl)-1-methyl-1H-imidazol-2-yl]-piperidin-1-yl}-pyrimidin-4-ylamine], the IC50 was 4.2 nM.
`COc1cncc(-c2c(N)ncnc2N2CCC(c3nc(-c4ccc(F)c(C(F)(F)F)c4)cn3C)CC2)c1` [Compound 47, 6-{4-[4-(4-Fluoro-3-trifluoromethyl-phenyl)-1-methyl-1H-imidazol-2-yl]-piperidin-1-yl}-5-(5-methoxy-pyridin-3-yl)-pyrimidin-4-ylamine] gave an IC50 of 4.3 nM.
For `FC(F)(F)c1cccc(-c2c[nH]c(C3CCN(c4ccncc4Br)CC3)n2)c1` [Compound 5, 3-bromo-4-(4-{4-[3-(trifluoromethyl)phenyl]-1H-imidazol-2-yl}piperidin-1-yl)pyridine], the IC50 was 315 nM.
For `Cn1cc(-c2ccc(F)c(C(F)(F)F)c2)nc1C1CCN(c2ncnc(N)c2-c2ccc(Cl)nc2)CC1` [Compound 50, 5-(6-Chloro-pyridin-3-yl)-6-{4-[4-(4-fluoro-3-trifluoromethyl-phenyl)-1-methyl-1H-imidazol-2-yl]-piperidin-1-yl}-pyrimidin-4-ylamine], the IC50 was 4.5 nM.
`Cn1cc(-c2ccc(F)c(C(F)(F)F)c2)nc1C1CCN(c2ncnc(N)c2-c2cccc(F)c2)CC1` [Compound 22, 5-(3-Fluoro-phenyl)-6-{4-[4-(4-fluoro-3-trifluoromethyl-phenyl)-1-methyl-1H-imidazol-2-yl]-piperidin-1-yl}-pyrimidin-4-ylamine] was tested, and the IC50 was 1.6 nM.
Work on `Cn1cc(-c2ccc(F)c(C(F)(F)F)c2)nc1C1CCN(c2ncnc(N)c2-c2ccc(F)c(F)c2)CC1` [Compound 30, 5-(3,4-Difluoro-phenyl)-6-{4-[4-(4-fluoro-3-trifluoromethyl-phenyl)-1-methyl-1H-imidazol-2-yl]-piperidin-1-yl}-pyrimidin-4-ylamine] yielded an IC50 of 6.3 nM.
`COc1ccc(-c2c(N)ncnc2N2CCC(c3nc(-c4cccc(C(F)(F)F)c4)c[nH]3)CC2)cc1` [Compound 33, 5-(4-Methoxy-phenyl)-6-{4-[4-(3-trifluoromethyl-phenyl)-1H-imidazol-2-yl]-piperidin-1-yl}-pyrimidin-4-ylamine] showed an IC50 of 2.7 nM.
With `Cn1cc(-c2ccc(F)c(C(F)(F)F)c2)nc1C1CCN(c2ncnc(N)c2/C=C/C(N)=O)CC1` [Compound 46, (E)-3-(4-Amino-6-{4-[4-(4-fluoro-3-trifluoromethyl-phenyl)-1-methyl-1H-imidazol-2-yl]-piperidin-1-yl}-pyrimidin-5-yl)-acrylamide] the IC50 was 14 nM.
In the case of `Cn1cc(-c2ccc(F)c(C(F)(F)F)c2)nc1C1CCN(c2ncnc(N)c2-c2ccccc2F)CC1` [Compound 23, 5-(2-Fluorophenyl)-6-{4-[4-(4-fluoro-3-trifluoromethyl-phenyl)-1-methyl-1H-imidazol-2-yl]-piperidin-1-yl}-pyrimidin-4-ylamine], the IC50 is reported as 3 nM.
With `COc1ccc(-c2cncnc2N2CCC(c3nc(-c4cccc(C(F)(F)F)c4)c[nH]3)CC2)cc1` [Compound 34, 5-(4-Methoxy-phenyl)-4-{4-[4-(3-trifluoromethyl-phenyl)-1H-imidazol-2-yl]-piperidin-1-yl}-pyrimidine] the IC50 was 12 nM.
With `Cn1cc(-c2ccc(F)c(C(F)(F)F)c2)nc1C1CCN(c2ncnc(N)c2-c2ccccc2Cl)CC1` [Compound 24, 5-(2-Chlorophenyl)-6-{4-[4-(4-fluoro-3-trifluoromethyl-phenyl)-1-methyl-1H-imidazol-2-yl]-piperidin-1-yl}-pyrimidin-4-ylamine] the IC50 was 5.3 nM.
For `Cn1cc(-c2ccc(F)c(C(F)(F)F)c2)nc1C1CCN(c2ncnc(N)c2-c2ccccc2)CC1` [Compound 21, 6-{4-[4-(4-Fluoro-3-trifluoromethyl-phenyl)-1-methyl-1H-imidazol-2-yl]-piperidin-1-yl}-5-phenyl-pyrimidin-4-ylamine], the IC50 was 3.7 nM.
`Cn1cc(-c2ccc(F)c(C(F)(F)F)c2)nc1C1CCN(c2ncnc(N)c2-c2ccc(N3CCOCC3)nc2)CC1` [Compound 25, 6-{4-[4-(4-Fluoro-3-trifluoromethyl-phenyl)-1-methyl-1H-imidazol-2-yl]-piperidin-1-yl}-5-(6-morpholin-4-yl-pyridin-3-yl)-pyrimidin-4-ylamine] gave an IC50 of 190 nM.
In the case of `Cn1cc(-c2ccc(F)c(C(F)(F)F)c2)nc1C1CCN(c2cc(N)ncn2)CC1` [Compound 12, 6-{4-[4-(4-Fluoro-3-trifluoromethyl-phenyl)-1-methyl-1H-imidazol-2-yl]-piperidin-1-yl}-pyrimidin-4-ylamine], the IC50 is reported as 87 nM.
With `Cn1cc(-c2ccc(F)c(C(F)(F)F)c2)nc1C1CCN(c2ncnc(N)c2-c2ccc(C#N)c(F)c2)CC1` [Compound 52, 4-(4-Amino-6-{4-[4-(4-fluoro-3-trifluoromethyl-phenyl)-1-methyl-1H-imidazol-2-yl]-piperidin-1-yl}-pyrimidin-5-yl)-2-fluoro-benzonitrile] the IC50 was 5 nM.
Molecule `Cn1c(-c2ccc(F)c(C(F)(F)F)c2)cnc1C1CCN(c2ncnc(N)c2Br)CC1` [Compound 2, 5-Bromo-6-{4-[5-(4-fluoro-3-trifluoromethyl-phenyl)-1-methyl-1H-imidazol-2-yl]-piperidin-1-yl}-pyrimidin-4-ylamine] has an IC50 of 57 nM.
`Cn1cc(-c2ccc(F)c(C(F)(F)F)c2)nc1C1CCN(c2ncncc2-c2ccc(F)cc2)CC1` [Compound 42, 5-(4-Fluoro-phenyl)-4-{4-[4-(4-fluoro-3-trifluoromethyl-phenyl)-1-methyl-1H-imidazol-2-yl]-piperidin-1-yl}-pyrimidine] gave an IC50 of 5.4 nM.
Molecule `CN(C)c1ncc(-c2c(N)ncnc2N2CCC(c3nc(-c4ccc(F)c(C(F)(F)F)c4)cn3C)CC2)cn1` [Compound 31, 6′-{4-[4-(4-Fluoro-3-trifluoromethyl-phenyl)-1-methyl-1H-imidazol-2-yl]-piperidin-1-yl}-N2,N2-dimethyl-[5,5]bipyrimidinyl-2,4′-diamine] has an IC50 of 7.5 nM.
`COc1ccc(-c2cnccc2N2CCC(c3nc(-c4cccc(C(F)(F)F)c4)c[nH]3)CC2)cc1` [Compound 35, 3-(4-methoxyphenyl)-4-(4-{4-[3-(trifluoromethyl)phenyl]-1H-imidazol-2-yl}piperidin-1-yl)pyridine] gave an IC50 of 9 nM.
`CCOc1c(N)ncnc1N1CCC(c2nc(-c3ccc(F)c(Cl)c3)cn2CCN2CCCC2)CC1` [Compound 289] gave an IC50 of 0.8 nM.
Molecule `CCc1c(N)ncnc1N1CCC(c2nc(-c3ccnc(C(F)(F)F)c3)cn2CCNC)CC1` [Compound 171, 5-ethyl-6-(4-(1-(2-(methylamino)ethyl)-4-(2-(trifluoromethyl)pyridin-4-yl)-1H-imidazol-2-yl)piperidin-1-yl)pyrimidin-4-amine] has an IC50 of 0.6 nM.
In the case of `Cn1cc(-c2ccc(F)c(C(F)(F)F)c2)nc1C1CCN(c2ncnc(N)c2-c2ccc(C(F)(F)F)cc2)CC1` [Compound 16, 6-{4-[4-(4-Fluoro-3-trifluoromethyl-phenyl)-1-methyl-1H-imidazol-2-yl]-piperidin-1-yl}-5-(4-trifluoromethyl-phenyl)-pyrimidin-4-ylamine], the IC50 is reported as 21 nM.
With `Cn1cc(-c2ccc(F)c(C(F)(F)F)c2)nc1C1CCN(c2ncnc(N)c2-c2ccccc2C#N)CC1` [Compound 18, 2-(4-Amino-6-{4-[4-(4-fluoro-3-trifluoromethyl-phenyl)-1-methyl-1H-imidazol-2-yl]-piperidin-1-yl}-pyrimidin-5-yl)-benzonitrile] the IC50 was 250 nM.
`COC(=O)/C=C/c1c(N)ncnc1N1CCC(c2nc(-c3ccc(F)c(C(F)(F)F)c3)cn2C)CC1` [Compound 45, (E)-3-(4-Amino-6-{4-[4-(4-fluoro-3-trifluoromethyl-phenyl)-1-methyl-1H-imidazol-2-yl]-piperidin-1-yl}-pyrimidin-5-yl)-acrylic acid methyl ester] showed an IC50 of 3.5 nM.
`Cn1cc(-c2ccc(F)c(C(F)(F)F)c2)nc1C1CCN(c2ncnc(N)c2-c2ccc(F)nc2)CC1` [Compound 27, 5-(6-Fluoro-pyridin-3-yl)-6-{4-[4-(4-fluoro-3-trifluoromethyl-phenyl)-1-methyl-1H-imidazol-2-yl]-piperidin-1-yl}-pyrimidin-4-ylamine] showed an IC50 of 3 nM.
